19 compounds from patent US10189785B2, “Heterocyclic compound” (TAKEDA PHARMACEUTICAL COMPANY LIMITED, priority 2015, dated 2019) can be followed below.

Test [1] has as its target T1, SPT (SPT2-expressing membrane fraction: human SPT1, human SPT2 and human ssSPTa) (Homo sapiens, UniProt O15269+O15270).
T1 construct: Full-length human SPT1, human SPT2 and human ssSPTa used; made in house; host or cells: FreeStyle 293 cells (pcDNA3.1 vectors, cotransfection); crude membrane fraction used
T1 sequence (O15269 1-473): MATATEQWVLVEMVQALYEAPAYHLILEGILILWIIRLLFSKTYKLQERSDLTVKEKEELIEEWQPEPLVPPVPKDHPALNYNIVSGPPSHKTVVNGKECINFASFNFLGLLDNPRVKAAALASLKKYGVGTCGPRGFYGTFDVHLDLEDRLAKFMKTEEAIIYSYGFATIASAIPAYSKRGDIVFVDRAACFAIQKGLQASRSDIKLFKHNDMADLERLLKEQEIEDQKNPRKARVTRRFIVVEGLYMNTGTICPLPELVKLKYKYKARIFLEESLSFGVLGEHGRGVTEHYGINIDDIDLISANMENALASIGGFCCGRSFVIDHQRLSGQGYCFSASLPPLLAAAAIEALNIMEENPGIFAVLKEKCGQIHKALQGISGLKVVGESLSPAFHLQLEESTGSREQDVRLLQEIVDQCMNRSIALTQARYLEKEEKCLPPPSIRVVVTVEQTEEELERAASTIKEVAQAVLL
T1 sequence (O15270 1-562): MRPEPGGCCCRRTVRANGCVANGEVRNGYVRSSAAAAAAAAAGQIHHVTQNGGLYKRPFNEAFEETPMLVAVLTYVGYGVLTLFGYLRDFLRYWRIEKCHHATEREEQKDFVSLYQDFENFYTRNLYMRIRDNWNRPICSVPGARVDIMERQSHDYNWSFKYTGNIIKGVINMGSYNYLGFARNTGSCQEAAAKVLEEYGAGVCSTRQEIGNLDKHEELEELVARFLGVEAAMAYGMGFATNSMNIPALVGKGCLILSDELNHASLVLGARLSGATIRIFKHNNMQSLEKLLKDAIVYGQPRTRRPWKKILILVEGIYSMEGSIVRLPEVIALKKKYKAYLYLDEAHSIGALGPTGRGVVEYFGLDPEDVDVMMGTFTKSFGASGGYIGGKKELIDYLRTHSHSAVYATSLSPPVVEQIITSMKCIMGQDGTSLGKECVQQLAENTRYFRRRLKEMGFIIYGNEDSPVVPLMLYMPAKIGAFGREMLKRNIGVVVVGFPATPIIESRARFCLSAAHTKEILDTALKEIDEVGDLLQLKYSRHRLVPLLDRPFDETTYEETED
T1 sequence (Q969W0 1-71 partner): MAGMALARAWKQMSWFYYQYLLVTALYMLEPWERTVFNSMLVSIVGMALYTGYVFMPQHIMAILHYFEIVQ
In words: SPT enzyme inhibition test (Test Example 1). Format: biochemical. Particulars: read-out: Rate of inhibition (%) at 1 μM. The method in brief:
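Membrane fraction (100 μg/mL stock) of cells expressing human SPT1, SPT2 and ssSPTa was preincubated 60 min at RT with compound in 100 mM Hepes pH 8.0 containing EDTA, DTT and 0.01% BSA. Reaction ran 15 min at RT with 2 mM L-serine and 20 μM palmitoyl CoA (solution concentrations), then formic acid quench. Product measured by RapidFire mass spectrometry against a C17-sphinganine internal standard, giving % inhibition.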

Test [2] concerns lung adenocarcinoma cell line HCC4006. In words: HCC4006 cell growth inhibition test (Test Example 2). Format: cell-based. Particulars: Homo sapiens, 120 h; 1 μM test compound; HCC4006 cells, culture for 5 days, CellTiter-Glo; read-out: Rate of inhibition (%) at 1 μM. A digest of the protocol: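 HCC4006 cells in RPMI-1640 with 10% FBS were seeded at 250 cells/well and dosed with compound the next day. After 5 days, viability was read by CellTiter-Glo luminescence. Percent inhibition was calculated against no-compound control and cell-free blank.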
A general note: In ATP-based viability assays light output follows the ATP content of the culture.

By inhibition is commonly meant the change of the read-out against control, counted positive when it falls. Take `COc1cc(C(=O)N2CC[C@@H](NC(=O)c3cnn(C)c3Cl)[C@@H](c3ccccc3)C2)cnc1OC` [Example 150B, 5-chloro-N-((3S,4R)-1-((5,6-dimethoxypyridin-3-yl)carbonyl)-3-phenylpiperidin-4-yl)-1-methyl-1H-pyrazole-4-carboxamide]: the inhibition at 1 µM in test [1] is 101%; in test [2], 47%.

Regarding `COc1cc(C(=O)N2CC[C@@H](NC(=O)c3cc(C)nn3C)[C@@H](c3ccccc3)C2)cnc1OC` [Example 151B, N-((3S,4R)-1-((5,6-dimethoxypyridin-3-yl)carbonyl)-3-phenylpiperidin-4-yl)-1,3-dimethyl-1H-pyrazole-5-carboxamide], the inhibition at 1 µM in test [1] is 99%; in test [2], 51%.

In the case of `COc1cc(C(=O)N2CC[C@@H](NC(=O)c3cn(C)nc3C)[C@@H](c3ccccc3)C2)cnc1OC` [Example 152B, N-((3S,4R)-1-((5,6-dimethoxypyridin-3-yl)carbonyl)-3-phenylpiperidin-4-yl)-1,3-dimethyl-1H-pyrazole-4-carboxamide], the inhibition at 1 µM turned out to be 96% in test [1] and 33% in test [2].

In the case of `CCn1ncc2c1C(NC(=O)c1ccc(Cl)cc1C(F)(F)F)CCN2C(=O)c1cnc(OC)c(OC)c1` (centres unmarked) [Example 153A, 4-Chloro-N-(4-((5,6-dimethoxypyridin-3-yl)carbonyl)-1-ethyl-4,5,6,7-tetrahydro-1H-pyrazolo[4,3-b]pyridin-7-yl)-2-(trifluoromethyl)benzamide], the inhibition at 1 µM in test [1] came to 101%; in test [2] it was 53%.

In the case of `CCn1ncc2c1C(NC(=O)c1ccccc1OC(F)(F)F)CCN2C(=O)c1cnc(OC)c(OC)c1` (centres unmarked) [Example 155A, N-(4-((5,6-Dimethoxypyridin-3-yl)carbonyl)-1-ethyl-4,5,6,7-tetrahydro-1H-pyrazolo[4,3-b]pyridin-7-yl)-2-(trifluoromethoxy)benzamide], the inhibition at 1 µM in test [1] turned out to be 103%; in test [2], 53%.

Regarding `CCn1ncc2c1[C@@H](NC(=O)c1ccc(Cl)cc1C(F)(F)F)CCN2C(=O)c1cnc(OC)c(OC)c1` [Example 165A, 4-Chloro-N-((7S)-4-((5,6-dimethoxypyridin-3-yl)carbonyl)-1-ethyl-4,5,6,7-tetrahydro-1H-pyrazolo[4,3-b]pyridin-7-yl)-2-(trifluoromethyl)benzamide], the results for the inhibition at 1 µM in test [1] and in test [2] were 101% and 52%, respectively.

As for `Cc1nn(C)c(Cl)c1C(=O)N[C@@H]1CCN(C(=O)c2cc(Cl)c3nccnc3c2)C[C@@H]1c1ccccc1` [Example 166B, 5-Chloro-N-((3S,4R)-1-((8-chloroquinoxalin-6-yl)carbonyl)-3-phenylpiperidin-4-yl)-1,3-dimethyl-1H-pyrazole-4-carboxamide], the inhibition at 1 µM in test [1] was found to be 101%; in test [2] it was 53%.

As to `COc1ncc(C(=O)N2CC[C@H](NC(=O)c3ccc(Cl)cc3C(F)(F)F)c3c2cnn3CC(F)F)cc1Cl` [Example 170A, 4-Chloro-N-((7S)-4-((5-chloro-6-methoxypyridin-3-yl)carbonyl)-1-(2,2-difluoroethyl)-4,5,6,7-tetrahydro-1H-pyrazolo[4,3-b]pyridin-7-yl)-2-(trifluoromethyl)benzamide], the results for the inhibition at 1 µM in test [1] and in test [2] were 99% and 50%, respectively.

As to `CCOc1cc(C(=O)N[C@@H]2CCN(C(=O)c3cc(Cl)c4nccnc4c3)C[C@@H]2c2ccccc2)n(C)n1` [Example 170B, N-((3S,4R)-1-((8-Chloroquinoxalin-6-yl)carbonyl)-3-phenylpiperidin-4-yl)-3-ethoxy-1-methyl-1H-pyrazole-5-carboxamide], the inhibition at 1 µM was 100% in test [1] and 50% in test [2].

On to `COc1cc(C(=O)N2CC[C@H](NC(=O)c3ccccc3OC(F)(F)F)c3c2cnn3C)cnc1OC` [Example 171A, N-((7S)-4-((5,6-Dimethoxypyridin-3-yl)carbonyl)-1-methyl-4,5,6,7-tetrahydro-1H-pyrazolo[4,3-b]pyridin-7-yl)-2-(trifluoromethoxy)benzamide], for which the results for the inhibition at 1 µM in test [1] and in test [2] were 101% and 50%, respectively.

With `CCn1ncc2c1[C@@H](NC(=O)c1ccccc1OC(F)(F)F)CCN2C(=O)c1cnc(OC)c(OC)c1` [Example 178A, N-((7S)-4-((5,6-Dimethoxypyridin-3-yl)carbonyl)-1-ethyl-4,5,6,7-tetrahydro-1H-pyrazolo[4,3-b]pyridin-7-yl)-2-(trifluoromethoxy)benzamide], the inhibition at 1 µM in test [1] was 101%; in test [2], 53%.

Turning to `COc1ccc(C(=O)N2CCC(NC(=O)c3ccccc3Cl)c3c2cnn3CCC(C)(C)O)cc1OC` (centres unmarked) [Example 186A, 2-chloro-N-(4-(3,4-dimethoxybenzoyl)-1-(3-hydroxy-3-methylbutyl)-4,5,6,7-tetrahydro-1H-pyrazolo[4,3-b]pyridin-7-yl)benzamide], the inhibition at 1 µM worked out at 101% in test [1] and 47% in test [2].

For `COc1cc(C(=O)N2CC[C@@H](NC(=O)c3ncccc3C(F)(F)F)[C@@H](c3ccc(F)cc3)C2)cnc1OC` [Example 191B, N-((3S,4R)-1-((5,6-dimethoxypyridin-3-yl)carbonyl)-3-(4-fluorophenyl)piperidin-4-yl)-3-(trifluoromethyl)pyridine-2-carboxamide], the inhibition at 1 µM in test [1] came out at 100%; in test [2] it was 47%.

`O=C(N[C@@H]1CCN(C(=O)c2cc(Cl)c3nccnc3c2)C[C@@H]1c1ccccc1)c1ncccc1C(F)(F)F` [Example 241B, N-((3S,4R)-1-((8-Chloroquinoxalin-6-yl)carbonyl)-3-phenylpiperidin-4-yl)-3-(trifluoromethyl)pyridine-2-carboxamide]: the figures for the inhibition at 1 µM in test [1] and in test [2] were 101% and 54%, respectively.

For the compound `O=C(N[C@@H]1CCN(C(=O)c2cc(Cl)c3nccnc3c2)C[C@@H]1c1ccc(F)cc1)c1ncccc1C(F)(F)F` [Example 245B, N-((3S,4R)-1-((8-Chloroquinoxalin-6-yl)carbonyl)-3-(4-fluorophenyl)piperidin-4-yl)-3-(trifluoromethyl)pyridine-2-carboxamide], the inhibition at 1 µM in test [1] turned out to be 100%; in test [2], 53%.

On to `O=C(N[C@@H]1CCN(C(=O)c2cc(Cl)c3nccnc3c2)C[C@@H]1c1ccccc1)c1ncccc1Cl` [Example 246B, 3-Chloro-N-((3S,4R)-1-((8-chloroquinoxalin-6-yl)carbonyl)-3-phenylpiperidin-4-yl)pyridine-2-carboxamide], for which the inhibition at 1 µM in test [1] turned out to be 101%; in test [2], 55%.

In the case of `O=C(N[C@@H]1CCN(C(=O)c2cc(Cl)c3nccnc3c2)C[C@@H]1c1ccccc1)c1ccccc1OC(F)(F)F` [Example 254B, N-((3S,4R)-1-((8-chloroquinoxalin-6-yl)carbonyl)-3-phenylpiperidin-4-yl)-2-(trifluoromethoxy)benzamide], the inhibition at 1 µM in test [1] turned out to be 99%; in test [2], 55%.

For `Cc1cc(C(=O)N2CC[C@@H](NC(=O)c3ncccc3C(F)(F)F)[C@@H](c3ccccc3)C2)cn2c(C)cnc12` [Example 279B, N-((3S,4R)-1-((3,8-dimethylimidazo[1,2-a]pyridin-6-yl)carbonyl)-3-phenylpiperidin-4-yl)-3-(trifluoromethyl)pyridine-2-carboxamide], the inhibition at 1 µM in test [1] is 103%; in test [2] it was 44%.

`COc1cc(C(=O)N2CC[C@@H](NC(=O)c3c(C)c(C)nn3C)[C@@H](c3ccccc3)C2)cc2nccnc12` [Example 324B, N-((3S,4R)-1-((8-methoxyquinoxalin-6-yl)carbonyl)-3-phenylpiperidin-4-yl)-1,3,4-trimethyl-1H-pyrazole-5-carboxamide]: the inhibition at 1 µM turned out to be 99% in test [1] and 49% in test [2].
